Experiments:
[1] = tested on: bleomycin-induced respiratory impairment; test: Respiratory measurements by whole body plethysmography, BLM rat model, combination study (Example 3, Table E6); assay type: in vivo, rat (male Sprague Dawley); set-up: Tidal Volume: unit not given here; conditions: for Expiratory Time / Inspiratory Time / Peak Expiratory Flow / Peak Inspiratory Flow / Tidal Volume / Respiratory Rate / Respiratory Minute Volume: mean; for Respiratory Rate: in breaths/min (unit assumed); for Respiratory Minute Volume: in mL/min (unit assumed)
Protocol: (§1) PBS or BLM was administered under isoflurane anesthesia. Excess rats were induced with BLM and used to replace any animals with excessive body weight loss.
(§2) All treatments commenced on Day 9.
(§3) In-life, body weights were measured and clinical observations were conducted daily. On Days 8, 15 and 21, animals were removed from their home cages and placed individually into whole body plethysmography chambers. After a 20-minute acclimatization phase, respiratory parameters were recorded for 10 minutes. Pre-study and on Days 10 and Day 17, whole blood was obtained from the tail vein and processed to serum for measurement of HRS^FC1.

[2] = tested on: bleomycin-induced lung inflammation; test: Interstitial/alveolar inflammatory cell infiltrate score, BLM rat model, combination study (Example 3); assay type: in vivo, rat (male Sprague Dawley); conditions: BLM-induced rats; alone or in combination, vs PO plus IV vehicles; data not shown
Protocol: (§4) The five lung lobes were collected and weighed. On Day 17, the right accessory lobe was retained and desiccated to obtain dry weight. The remaining right lung lobes were inflated and fixed in 10% neutral buffered formalin and embedded in paraffin for histological analysis. An approximately 50 mg piece of the left lung lobe was snap frozen and stored at −80° C. for potential RNA analysis. The remainder of the lobe was also snap frozen until analyzed for collagen content.
(§5) Sections for histology were stained using picrosirius red and were scored in a blinded fashion (1 score for each of the 3-4 lobes) by a veterinary pathologist using a modified Ashcroft score (Hubner et al., 2008). Hydroxyproline content was determined in the left lung lobe using a mass spectrometry method.
(§6) Slides were read by a veterinary pathologist and each of the 3 lobes evaluated was assigned 4 score types [Ashcroft for fibrosis (scores range from 0 to 8), perivascular/peribronchiolar inflammatory cell infiltrate (scores range from 0 to 5), interstitial/alveolar inflammatory cell infiltrate (scores range from 0 to 5), type II pneumocyte hyperplasia (scores range from 0 to 5)].

[3] = tested on: bleomycin-induced lung fibrosis; test: Histological fibrosis (modified Ashcroft) score, BLM rat model, combination study (Example 3); assay type: in vivo, rat (male Sprague Dawley); conditions: BLM-induced rats; alone or in combination, vs PO plus IV vehicles; data not shown
Protocol: as §4, §5, §6

[4] = Body weight, BLM rat model, combination study (Example 3); assay type: in vivo, rat (male Sprague Dawley); conditions: BLM-induced rats; Nintedanib, Pirfenidone or Test Article (HRS^FC1 3 mg/kg IV weekly), alone or in combination, from Day 9
Protocol: as §1, §2, §3

[5] = tested on: bleomycin-induced lung fibrosis; test: Lung wet and dry weight, BLM mouse model (Example 1); assay type: in vivo, mouse (male C57Bl/6J); conditions: BLM-induced mice; dexamethasone 0.25 mg/kg PO daily from Day 0
Protocol: (§7) Lung inflammation and fibrosis were induced in male C57Bl/6J mice by oropharyngeal administration of BLM. After the habituation phase mice were randomized based on body weight over the different groups. Under isoflurane anesthesia, 50 μl PBS or BLM was dripped onto the vocal cords facilitating aspiration. Mice were sacrificed at day 21 using a terminal bleed under isoflurane anesthesia.
(§8) Daily oral treatments commenced on Day 0, while daily IV treatments commenced on Day 8. Dosing was planned to continue until the day of termination (Day 21), however, due to high mortality in IV treated groups (see results), IV dosing was skipped on Day 19 and Day 20. […] Subsequently, the mice received 8% D20 (Kinemed, Emeryville) drinking water until sacrifice to maintain labeling of newly formed collagen. Body weight was monitored three times a week.
(§9) The five lung lobes were collected and isolated. Wet weight of the medial and accessory lung lobes was recorded. The lobes were then snap frozen and stored at <−70° C. until use for hydroxyproline analysis. The left lung lobe was inflated and fixed for 48 hours in 4% formaldehyde and embedded in paraffin for histological analysis. The cranial lung lobe was snap frozen and stored at −80° C. until shipment to Kinemed for the determination of new collagen formation.

[6] = Body weight, BLM mouse model (Example 1); assay type: in vivo, mouse (male C57Bl/6J); conditions: BLM-induced mice; daily PO from Day 0: dexamethasone 0.25 mg/kg, Nintedanib 60 mg/kg
Protocol: as §7, §8

[7] = tested on: bleomycin-induced lung fibrosis; test: Histological fibrosis (modified Ashcroft) score, BLM mouse model (Example 1); assay type: in vivo, mouse (male C57Bl/6J); conditions: BLM-induced mice; dexamethasone 0.25 mg/kg/dose from day of BLM instillation; Summary value, significant
Protocol: as §9
Sections of the left lung lobe were stained using Masson's Trichrome and were scored in a blinded fashion using a modified Ashcroft score (Hubner et al., BioTechniques. 44:507-511, 514-507, 2008). Hydroxyproline content was determined in the medial and accessory lung lobes using acid hydrolysis followed by a chromogenic assay (QuickZyme Biosciences, Leiden, Netherlands). Newly formed collagen was measured in the cranial lung lobe by Kinemed Inc., Emeryville, USA using the fraction of body water enriched in 2H for normalization.

[8] = tested on: bleomycin-induced lung fibrosis; test: Survival, BLM-induced lung fibrosis mouse model (Example 1, Table E2); assay type: in vivo, mouse (male C57Bl/6J); conditions: for Survival (number of animals surviving to study day): Dex. 0.25 mg/kg PO, BLM mice, 12 at start
Protocol: as §7, §8
The study commenced with 7 animals in the non-diseased control group and 12 animals in the BLM-induced groups. Survival is show in Table E2 below.

[9] = Serum HRS^FC1 levels by sandwich ELISA, BLM rat model (Example 3); assay type: in vivo, rat (male Sprague Dawley); conditions: for Serum levels of HRS^FC1 ~24 hours post dose, vs HRS^FC1 plus oral vehicle: FIG. 6; for Amount of HRS^FC1 in serum 24 hours after IV injection: second confirmatory study, identical methods, data not shown
Protocol: as §2, §3
Serum samples from animals treated with HRS^FC1 were used to determine levels of the protein in systemic circulation using standard sandwich ELISA techniques with antibodies that capture the HRS moiety and detect the Fc portion of the fusion protein.
All statistical analyses were performed using GraphPad Prism (GraphPad Software, San Diego, Calif.). Groups were compared using the one-way ANOVA test (histology, lung weights, collagen content) or two-way repeated measures ANOVA test (pharmacokinetics), followed, when appropriate by a post-hoc Dunnett test.

[10] = Day 8 (prior to any treatments), Pirf. PO + Vehicle IV group

## Cc1ccc(=O)n(-c2ccccc2)c1 [Pirf.]
[1]; [10]
  Expiratory Time: 0.153 s
  Inspiratory Time: 0.114 s
  Peak Expiratory Flow: 19.5
  Peak Inspiratory Flow: 17.5
  Tidal Volume: 1.24
  Respiratory Rate: 247.6
  Respiratory Minute Volume: 314.8
[1]; Day 15, Pirf. PO + Vehicle IV
  Expiratory Time: 0.193 s
  Inspiratory Time: 0.135 s
  Peak Expiratory Flow: 15.0
  Peak Inspiratory Flow: 15.6
  Tidal Volume: 1.23
  Respiratory Rate: 206.2
  Respiratory Minute Volume: 260.2
[1]; Day 21, Pirf. PO + Vehicle IV
  Expiratory Time: 0.234 s
  Inspiratory Time: 0.148 s
  Peak Expiratory Flow: 13.0
  Peak Inspiratory Flow: 15.8
  Tidal Volume: 1.43
  Respiratory Rate: 186.5
  Respiratory Minute Volume: 259.6

## Cc1ccc(=O)n(-c2ccccc2)c1 [Pirfenidone, pirfenidone]
[2]
  Interstitial inflammatory cell infiltrate: no significant effect
[3]
  Interstitial inflammatory cell infiltrate (as printed in the Ashcroft score paragraph): no significant effect
[1]; BLM-induced rats, Day 15 and Day 21, Nintedanib, Pirfenidone or Test Article (HRS^FC1)
  BLM-induced alterations in respiratory parameters: did not significantly impact
[4]
  Body weight curves vs respective controls: None of the groups treated with Nintedanib, Pirfenidone or Test Article alone or in combination had body weight curves that significantly differed

## C[C@@H]1C[C@H]2[C@@H]3CCC4=CC(=O)C=C[C@]4(C)[C@@]3(F)[C@@H](O)C[C@]2(C)[C@@]1(O)C(=O)CO [dexamethasone]
[5]
  Decrease of lung wet weight compared to PO vehicle group: 15.6%
[6]
  Body weight, of initial body weights: around 90%
[7]
  Improvement of Ashcroft fibrosis score: 11.3%
[8]; BLM-induced mice to Day 21, daily PO from Day 0: dexamethasone 0.25 mg/kg, Nintedanib 60 mg/kg
  Survival rate: 75%
[8]; Day 11
  Survival (number of animals surviving to study day): 12
[8]; Day 12
  Survival (number of animals surviving to study day): 12
[8]; Day 13
  Survival (number of animals surviving to study day): 11
[8]; Day 14
  Survival (number of animals surviving to study day): 10
[8]; Day 15
  Survival (number of animals surviving to study day): 10
[8]; Day 16
  Survival (number of animals surviving to study day): 10
[8]; Day 17
  Survival (number of animals surviving to study day): 10
[8]; Day 18
  Survival (number of animals surviving to study day): 9
[8]; Day 19
  Survival (number of animals surviving to study day): 9
[8]; Day 20
  Survival (number of animals surviving to study day): 9
[8]; Day 21
  Survival (number of animals surviving to study day): 9

## HRS^FC1: Test Article of Examples 2 and 3; HRS-Fc fusion protein Fc-HRS(2-60)
[9]; BLM-induced rats, 3 mg/kg IV on Days 9 and 16
  Serum levels of HRS^FC1, change between Days 17 and 22: decreased
[9]; BLM-induced rats, 3 mg/kg IV on Days 9 and 16, Days 10, 17 and 22
  Serum levels of HRS^FC1: detectable
[9]; BLM-induced rats, concomitant oral Nintedanib 60 mg/kg once daily
  Serum levels of HRS^FC1 ~24 hours post dose, vs HRS^FC1 plus oral vehicle: significantly increased
[9]; BLM-induced rats, concomitant oral Pirfenidone 70 mg/kg per dose three times daily
  Serum levels of HRS^FC1 ~24 hours post dose, vs HRS^FC1 plus oral vehicle: significantly increased
[9]; concomitant Nintedanib
  Amount of HRS^FC1 in serum 24 hours after IV injection: increased
[9]; concomitant Pirfenidone
  Amount of HRS^FC1 in serum 24 hours after IV injection: increased

Reference: patent US11767520B2, “Compositions and methods for treating lung inflammation” (aTyr Pharma, Inc., priority 2017, dated 2023)
